According to patent US20220380375A1, “SUBSTITUTED AROMATIC FUSED RING DERIVATIVE AND COMPOSITION COMPRISING SAME, AND USE THEREOF” (Shenzhen TargetRx, Inc., priority 2019, published 2022):

What was measured:
Format in all cases: cell-based
[1] = test system: Ba/F3 FLT3-ITD^D835Y cells; test: Cytotoxicity assay (CellTiter-Glo), Ba/F3 FLT3-ITD D835Y; conditions: ratio of Ba/F3 parental IC50 to Ba/F3 FLT3-ITD^D835Y IC50
Procedure: (§1) Inhibitory effects of example compounds on the activity of Ba/F3 parental generation, Ba/F3 KIF5B-RET, Ba/F3 KIF5B-RET^V804M, Ba/F3 KIF5B-RET^V804L, Ba/F3 KIF5B-RET^G810R, Ba/F3 FLT3-ITD, Ba/F3 FLT3-ITD^D835Y, Ba/F3 FLT3-ITD^F691L cells were determined.
(§2) Materials and reagents: fetal bovine serum FBS (GIBCO, Cat #10099141), CellTiter-Glo® Luminescent Cell Viability Assay kit (Promega, Cat #G7572), 96-well black-wall clear flat-bottom plate (Corning®, Cat #3603).
(§3) 1. Cells in the logarithmic growth phase were harvested and counted with a […]. Cell viability was detected by a trypan blue exclusion method, ensuring that cell viability was 90% or more; 2. Cell concentration was adjusted to about 3000 cells/well; 90 μl of cell suspension was added to each well of the 96-well plate; 3. The cells in the 96-well plate were incubated overnight under the condition of 37° C., 5% CO2, and 95% humidity.
(§4) 1. A series of compound solutions were formulated by 3.16-fold serial dilution starting from a concentration of 10 μM, resulting in 9 concentrations. 10 μL of the compound solutions were added in each well of the 96-well plate seeded with cells in triplicate for each compound concentration; 2. The cells in the 96-well plate added with compounds were further incubated under the condition of 37° C., 5% CO2, and 95% humidity for 72 hrs, and then CTG analysis was carried out.
(§5) 1. CTG reagent was thawed, and the cell plate was equilibrated at room temperature for 30 minutes; 2. An equal volume […] of CTG solution was added to each well; 3. The cell plate was shaken on an orbital shaker for 5 minutes to lyse the cells; 4. The cell plate was placed at RT for 20 minutes to stabilize the luminescence signal; 5. Luminescence value was read.
(§6) Data were Analyzed by GraphPad Prism 5.0 Software, and Fitted by Nonlinear S-Curve Regression to obtain a dose-response curve, from which IC50 values were calculated.
(§7) Cell survival rate (%)=(luminescence value of drug to be tested−luminescence value of culture medium control)/(luminescence value of cell control−luminescence value of culture medium control)×100%.

Ba/F3 FLT3-ITD cells [2] = test: Cytotoxicity assay (CellTiter-Glo), Ba/F3 FLT3-ITD; conditions: ratio of Ba/F3 parental IC50 to Ba/F3 FLT3-ITD IC50
Procedure: as §1, §2, §3, §4, §5, §6, §7

Ba/F3 FLT3-ITD cells [3] = target: T1, Ba/F3 FLT3-ITD cells (Homo sapiens, UniProt P36888, cells depend on it, form not given); test: Cytotoxicity assay (CellTiter-Glo), Ba/F3 FLT3-ITD; conditions: CellTiter-Glo, 72 hrs; read-out: Ba/F3 FLT3-ITD IC50
T1 construct: Ba/F3 FLT3-ITD IC50 (nM); other: CellTiter-Glo, 72 hrs
T1 sequence (P36888 1-993): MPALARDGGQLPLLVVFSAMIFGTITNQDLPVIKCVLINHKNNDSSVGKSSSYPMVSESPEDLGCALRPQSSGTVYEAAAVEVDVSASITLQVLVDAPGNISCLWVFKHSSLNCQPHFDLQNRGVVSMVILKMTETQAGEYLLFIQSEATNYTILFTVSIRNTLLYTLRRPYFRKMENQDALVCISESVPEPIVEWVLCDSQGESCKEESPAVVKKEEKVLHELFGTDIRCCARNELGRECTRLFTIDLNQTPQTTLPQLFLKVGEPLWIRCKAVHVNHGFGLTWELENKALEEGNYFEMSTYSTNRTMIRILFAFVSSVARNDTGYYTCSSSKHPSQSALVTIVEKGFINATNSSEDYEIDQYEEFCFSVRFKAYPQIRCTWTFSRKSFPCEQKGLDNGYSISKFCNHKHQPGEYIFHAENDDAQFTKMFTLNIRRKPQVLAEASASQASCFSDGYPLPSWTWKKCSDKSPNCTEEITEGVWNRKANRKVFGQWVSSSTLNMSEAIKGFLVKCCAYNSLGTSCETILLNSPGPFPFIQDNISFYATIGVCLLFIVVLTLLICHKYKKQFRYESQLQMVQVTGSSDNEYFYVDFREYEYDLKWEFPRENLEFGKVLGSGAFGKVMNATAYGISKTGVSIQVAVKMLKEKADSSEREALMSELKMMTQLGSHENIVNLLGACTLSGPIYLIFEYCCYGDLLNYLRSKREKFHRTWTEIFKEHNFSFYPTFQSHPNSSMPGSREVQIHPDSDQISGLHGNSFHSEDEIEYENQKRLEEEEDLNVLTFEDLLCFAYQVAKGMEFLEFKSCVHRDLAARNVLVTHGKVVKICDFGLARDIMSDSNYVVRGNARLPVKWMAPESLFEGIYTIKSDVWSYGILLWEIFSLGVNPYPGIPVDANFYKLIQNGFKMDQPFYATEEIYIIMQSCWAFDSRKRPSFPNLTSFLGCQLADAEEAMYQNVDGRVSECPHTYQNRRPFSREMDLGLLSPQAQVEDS
Procedure: as §1, §2, §3, §4, §5, §6, §7

Ba/F3 KIF5B-RET cells [4] = target: T2, Ba/F3 KIF5B-RET cells (Homo sapiens, UniProt P07949); test: Cytotoxicity assay (CellTiter-Glo), Ba/F3 KIF5B-RET; conditions: CellTiter-Glo, 72 hrs; read-out: Ba/F3 KIF5B-RET IC50
T2 construct: Ba/F3 KIF5B-RET IC50 (nM); other: CellTiter-Glo, 72 hrs; fused on or other part: P33176 (Kinesin-1 heavy chain)
T2 sequence (P07949 whole entry, change not shown, the tested form may be a part): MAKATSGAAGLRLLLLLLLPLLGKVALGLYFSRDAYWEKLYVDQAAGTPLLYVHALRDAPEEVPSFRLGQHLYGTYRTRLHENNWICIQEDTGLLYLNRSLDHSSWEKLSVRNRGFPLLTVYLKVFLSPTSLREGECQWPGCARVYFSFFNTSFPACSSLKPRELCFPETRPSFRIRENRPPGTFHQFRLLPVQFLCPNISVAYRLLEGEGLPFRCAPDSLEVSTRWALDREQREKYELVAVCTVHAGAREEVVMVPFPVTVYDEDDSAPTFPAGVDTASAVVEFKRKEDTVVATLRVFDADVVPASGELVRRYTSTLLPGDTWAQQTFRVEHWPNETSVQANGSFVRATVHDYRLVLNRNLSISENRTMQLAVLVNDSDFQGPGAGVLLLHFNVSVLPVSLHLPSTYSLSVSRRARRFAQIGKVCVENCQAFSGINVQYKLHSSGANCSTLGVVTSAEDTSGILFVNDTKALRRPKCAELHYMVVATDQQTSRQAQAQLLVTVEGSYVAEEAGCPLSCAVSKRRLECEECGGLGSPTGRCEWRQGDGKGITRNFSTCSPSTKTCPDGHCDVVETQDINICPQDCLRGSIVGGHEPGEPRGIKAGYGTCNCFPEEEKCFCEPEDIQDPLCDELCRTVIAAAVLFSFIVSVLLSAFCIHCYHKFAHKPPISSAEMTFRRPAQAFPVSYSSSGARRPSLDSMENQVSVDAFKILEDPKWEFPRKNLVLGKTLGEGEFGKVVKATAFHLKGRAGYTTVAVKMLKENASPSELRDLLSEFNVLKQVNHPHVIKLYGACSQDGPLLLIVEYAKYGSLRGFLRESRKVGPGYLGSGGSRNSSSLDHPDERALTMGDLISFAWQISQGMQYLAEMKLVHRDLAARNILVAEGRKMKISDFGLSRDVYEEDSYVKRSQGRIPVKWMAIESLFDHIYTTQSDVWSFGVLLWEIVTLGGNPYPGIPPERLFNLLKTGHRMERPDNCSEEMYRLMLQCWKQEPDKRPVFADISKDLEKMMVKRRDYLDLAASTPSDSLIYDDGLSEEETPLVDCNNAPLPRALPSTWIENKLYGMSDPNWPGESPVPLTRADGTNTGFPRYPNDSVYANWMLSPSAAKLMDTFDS
Procedure: as §1, §2, §3, §4, §5, §6, §7

Ba/F3 KIF5B-RET cells [5] = test: as above; conditions: ratio of Ba/F3 parental IC50 to Ba/F3 KIF5B-RET IC50
Procedure: as §1, §2, §3, §4, §5, §6, §7

[6] = test system: Ba/F3 parental generation cells; test: Cytotoxicity assay (CellTiter-Glo), Ba/F3 parental; conditions: Mus musculus, BaF3, Table 2, 72 hrs
Procedure: as §1, §2, §3, §4, §5, §6, §7

| Structure (SMILES) | Ba/F3 FLT3-ITD^D835Y Selectivity on parental generation [1] | Ba/F3 FLT3-ITD Selectivity on parental generation (Ba/F3 FLT3-ITD cells [2]) | GI50 (Ba/F3 FLT3-ITD cells [3]) [nM] | GI50 (Ba/F3 KIF5B-RET cells [4]) [nM] | Ba/F3 KIF5B-RET Selectivity on parental generation (Ba/F3 KIF5B-RET cells [5]) | IC50 [6] [nM] |
| --- | --- | --- | --- | --- | --- | --- |
| CC(C)n1nc(-c2ccc(NC(=O)Nc3cc(C(F)(F)F)ccc3F)cc2)c2c(N)ncnc21 [AD80, reference compound] | 21.82 | 1211.9 | 0.67 | 2.19 | 370.7 | 812 |
| CC(C)n1nc(-c2ccc(CC(=O)Nc3cc(C(C)(C)C(F)(F)F)on3)cc2)c2c(N)ncnc21 [Compound T-1, 2-(4-(4-amino-1-isopropyl-1H-pyrazolo[3,4-d]pyrimidin-3-yl)phenyl)-N-(5-(1,1,1-trifluoro-2-methylprop-2-yl)isoxazol-3-yl)acetamide] | 137.97 | 5227.1 | 0.31 | 0.15 | 10802.6 | 1620 |
| CC(C)n1nc(-c2ccc(NC(=O)Nc3cc(C(C)(C)C(F)(F)F)on3)cc2)c2c(N)ncnc21 [Compound T-2, 1-(4-(4-amino-1-isopropyl-1H-pyrazolo[3,4-d]pyrimidin-3-yl)phenyl)-3-(5-(1,1,1-trifluoro-2-methylprop-2-yl)isoxazol-3-yl)urea] | 35.48 | 824.0 | 0.41 | 0.16 | 2111.4 | 338 |
| CC(C)n1cc(-c2ccc(CC(=O)Nc3cc(C(C)(C)C(F)(F)F)on3)cc2)c2c(N)ncnc21 [Compound T-3, 2-(4-(4-amino-7-isopropyl-7H-pyrrolo[2,3-d]pyrimidin-5-yl)phenyl)-N-(5-(1,1,1-trifluoro-2-methylprop-2-yl)isoxazol-3-yl)acetamide] | 218.67 | 7244.4 | 0.1 | 0.58 | 1249.0 | 724 |
| CC(C)c1nc(-c2ccc(CC(=O)Nc3cc(C(C)(C)C(F)(F)F)on3)cc2)c2c(N)nccn12 [Compound T-4, 2-(4-(8-amino-3-isopropylimidazo[1,5-a]pyrazin-1-yl)phenyl)-N-(5-(1,1,1-trifluoro-2-methylprop-2-yl)isoxazol-3-yl)acetamide] | 32.03 | 7011.0 | 0.1 | 1.56 | 449.4 | 701 |
| CC(C)c1cc(-c2ccc(CC(=O)Nc3cc(C(C)(C)C(F)(F)F)on3)cc2)c2c(N)ncnn12 [Compound T-5, 2-(4-(4-amino-7-isopropylpyrrolo[2,1-f][1,2,4]triazin-5-yl)phenyl)-N-(5-(1,1,1-trifluoro-2-methylprop-2-yl)isoxazol-3-yl)acetamide] | 133.6 | 2530.7 | 1.89 | 2.88 | 1660.8 | 4780 |
| CC(C)n1nc(-c2ccc(CC(=O)Nc3cc(C(C)(C)C(F)(F)F)on3)c(F)c2)c2c(N)ncnc21 [Compound T-6, 2-(4-(4-amino-1-isopropyl-1H-pyrazolo[3,4-d]pyrimidin-3-yl)-2-fluorophenyl)-N-(5-(1,1,1-trifluoro-2-methylprop-2-yl)isoxazol-3-yl)acetamide] | 193.58 | 5238.7 | 0.4 | 0.31 | 6759.6 | 2100 |
| CC(C)n1nc(-c2ccc(CC(=O)Nc3cc(C(C)(C)C(F)(F)F)on3)cn2)c2c(N)ncnc21 [Compound T-7, 2-(6-(4-amino-1-isopropyl-1H-pyrazolo[3,4-d]pyrimidin-3-yl)pyridin-3-yl)-N-(5-(1,1,1-trifluoro-2-methylprop-2-yl)isoxazol-3-yl)acetamide] | 32.63 | 3280.6 | 0.1 | 4.61 | 71.2 | 328 |
| CC(C)n1nc(-c2ccc(CC(=O)Nc3cc(C(C)(C)C(F)(F)F)no3)cc2)c2c(N)ncnc21 [Compound T-8, 2-(4-(4-amino-1-isopropyl-1H-pyrazolo[3,4-d]pyrimidin-3-yl)phenyl)-N-(3-(1,1,1-trifluoro-2-methylprop-2-yl)isoxazol-5-yl)acetamide] | 500.9 | 14708 | 0.25 | 1.03 | 3569.9 | 3680 |
| CC(C)n1nc(-c2ccc(CC(=O)Nc3cc(C(C)(C)C(F)(F)F)no3)cn2)c2c(N)ncnc21 [Compound T-9, 2-(6-(4-amino-1-isopropyl-1H-pyrazolo[3,4-d]pyrimidin-3-yl)pyridin-3-yl)-N-(3-(1,1,1-trifluoro-2-methylprop-2-yl)isoxazol-5-yl)acetamide] | 87.8 | 750.1 | 5.49 | 10.9 | 377.8 | 4120 |
| CC(C)c1nc(-c2ccc(CC(=O)Nc3cc(C(C)(C)C(F)(F)F)on3)cc2)c2c(N)ncnn12 [Compound T-10, 2-(4-(4-amino-7-isopropylimidazo[5,1-f][1,2,4]triazin-5-yl)phenyl)-N-(5-(1,1,1-trifluoro-2-methylprop-2-yl)isoxazol-3-yl)acetamide] | 48.3 | 7006.3 | 0.32 | 3.68 | 609.2 | 2240 |
